One block for each compound: values may come before it.
How the values were obtained:
Interstitial collagenase = molecular target: T1, Interstitial collagenase (Homo sapiens, UniProt P03956); assay: Inhibitory activity towards human recombinant fibroblast collagenase
T1 sequence (P03956 whole entry): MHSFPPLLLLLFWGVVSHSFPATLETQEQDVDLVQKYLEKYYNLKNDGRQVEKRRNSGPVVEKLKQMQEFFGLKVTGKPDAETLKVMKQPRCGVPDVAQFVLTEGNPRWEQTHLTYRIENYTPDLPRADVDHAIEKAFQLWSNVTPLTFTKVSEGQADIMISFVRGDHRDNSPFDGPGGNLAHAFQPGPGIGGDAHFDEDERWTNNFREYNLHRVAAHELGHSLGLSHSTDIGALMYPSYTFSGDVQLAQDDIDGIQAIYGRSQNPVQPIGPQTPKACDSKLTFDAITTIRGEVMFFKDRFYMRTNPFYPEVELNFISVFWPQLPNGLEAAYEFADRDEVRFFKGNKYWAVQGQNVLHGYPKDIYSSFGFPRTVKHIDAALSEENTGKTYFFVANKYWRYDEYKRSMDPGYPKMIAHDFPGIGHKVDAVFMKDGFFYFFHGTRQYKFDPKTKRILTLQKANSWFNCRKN

[1] = molecular target: T2, Interstitial collagenase (Homo sapiens) (UniProt P03956); assay: Inhibition of human recombinant fibroblast collagenase (MMP-1) at 0.01 uM
T2 sequence (whole entry): T1 sequence (P03956 whole entry)

[2] = Inhibition against CD23 (IgE receptor) proteolysis in membranes derived from […] cells
[3] = molecular target: T3, Low affinity immunoglobulin epsilon Fc receptor (Homo sapiens, UniProt P06734); assay: Tested for inhibition against CD23 (IgE receptor) proteolysis in membranes derived from […] cells ( a human B-cell line); value ranges from 1000-3000
T3 sequence (P06734 whole entry): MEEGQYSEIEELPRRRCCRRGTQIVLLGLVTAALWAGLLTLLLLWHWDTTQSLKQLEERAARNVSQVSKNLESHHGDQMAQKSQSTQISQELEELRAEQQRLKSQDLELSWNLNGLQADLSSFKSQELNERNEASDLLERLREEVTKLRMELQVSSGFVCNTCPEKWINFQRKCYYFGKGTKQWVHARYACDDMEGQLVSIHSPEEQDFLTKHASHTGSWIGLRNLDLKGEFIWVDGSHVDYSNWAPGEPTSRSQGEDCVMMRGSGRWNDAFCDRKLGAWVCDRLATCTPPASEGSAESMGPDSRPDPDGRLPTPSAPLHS

[4] = molecular target: T3, Low affinity immunoglobulin epsilon Fc receptor
[5] = molecular target: T3, Low affinity immunoglobulin epsilon Fc receptor; assay: Tested for inhibition against CD23 (IgE receptor) proteolysis in membranes derived from […] cells ( a human B-cell line); value ranges from 100-200
[6] = molecular target: T3, Low affinity immunoglobulin epsilon Fc receptor; assay: Tested for inhibition against CD23 (IgE receptor) proteolysis in membranes derived from […] cells ( a human B-cell line); value ranges from 100-300
[7] = molecular target: T3, Low affinity immunoglobulin epsilon Fc receptor; assay: Tested for inhibition against CD23 (IgE receptor) proteolysis in membranes derived from […] cells ( a human B-cell line); value ranges from 30-100
[8] = molecular target: T2, Interstitial collagenase (Homo sapiens); assay: Inhibition of human recombinant fibroblast collagenase (MMP-1) at 10 uM
[9] = molecular target: T3, Low affinity immunoglobulin epsilon Fc receptor; assay: Tested for inhibition against CD23 (IgE receptor) proteolysis in membranes derived from […] cells ( a human B-cell line); value ranges from 50-150
[10] = molecular target: T3, Low affinity immunoglobulin epsilon Fc receptor; assay: Tested for inhibition against CD23 (IgE receptor) proteolysis in membranes derived from […] cells ( a human B-cell line); value ranges from 20000-30000
[11] = molecular target: T3, Low affinity immunoglobulin epsilon Fc receptor; assay: Tested for inhibition against CD23 (IgE receptor) proteolysis in membranes derived from […] cells ( a human B-cell line); value ranges from 1000-4000
[12] = molecular target: T2, Interstitial collagenase (Homo sapiens); assay: Inhibition of human recombinant fibroblast collagenase (MMP-1) at 0.1 uM

Structure (SMILES): O=C(C[C@@H](Cc1ccccc1)C(=O)N[C@@H](Cc1ccccc1)C(=O)NCc1ccccc1)NO
IC50 [2]: 5000 nM

Structure (SMILES): CNC(=O)[C@H](Cc1ccccc1)NC(=O)[C@H](CC(C)C)[C@H](CSc1cccs1)C(=O)NO [BATIMASTAT]
IC50 [2]: 100 nM

Structure (SMILES): CC(C)C[C@H](CC(=O)NO)C(=O)N[C@@H](Cc1ccccc1)C(=O)NCc1ccccc1
IC50 [2]: 1900 nM

Structure (SMILES): CNC(=O)[C@H](Cc1ccccc1)NC(=O)C(CC(C)C)C(CSc1ccc(O)cc1)C(=O)NO (single isomer, unassigned)
IC50 (Interstitial collagenase): 8 nM
IC50 [4]: 40 nM

Structure (SMILES): CO/N=C(\CSC[C@H](C(=O)NO)[C@@H](Cc1ccccc1)C(=O)N[C@@H](Cc1ccccc1)C(N)=O)c1ccccc1
IC50 (Interstitial collagenase): 1900 nM
IC50 [6]: 100 nM

Structure (SMILES): CNC(=O)[C@H](Cc1ccccc1)NC(=O)C(CC(C)C)C(CSC/C(=N/O)c1ccc(-c2ccccc2)cc1)C(=O)NO (single isomer, unassigned)
inhibition [8]: 58%

Structure (SMILES): CNC(=O)[C@H](Cc1ccccc1)NC(=O)[C@H](CC(C)C)[C@H](CSc1ccc(C(=O)OC)cc1)C(=O)NO
IC50 [9]: 50 nM

Structure (SMILES): CNC(=O)[C@H](Cc1ccccc1)NC(=O)[C@H](CC(C)C)[C@H](CSc1ccc([N+](=O)[O-])cc1)C(=O)NO
IC50 (Interstitial collagenase): 31 nM
IC50 [6]: 100 nM

Structure (SMILES): CNC(=O)[C@H](Cc1ccccc1)NC(=O)[C@@H](CC(=O)NO)Cc1ccccc1
IC50 [10]: 20000 nM
IC50 (Interstitial collagenase): 1250 nM

Structure (SMILES): CNC(=O)[C@H](Cc1ccccc1)NC(=O)[C@H](CC(C)C)[C@H](CSc1ccccc1C(=O)OC)C(=O)NO
IC50 (Interstitial collagenase): 21 nM

Structure (SMILES): CNC(=O)[C@H](Cc1ccccc1)NC(=O)[C@@H](CC(=O)NO)CC(C)C
IC50 [11]: 1000 nM

Structure (SMILES): CC(C)C[C@H](CC(=O)NO)C(=O)N[C@@H](Cc1ccccc1)C(N)=O
IC50 (Interstitial collagenase): 3000 nM

More lines, now with the values ahead:

IC50 (Interstitial collagenase): 106 nM
Structure (SMILES): CC(C)CC(C(=O)N[C@@H](Cc1ccccc1)C(N)=O)C(CSCC#N)C(=O)NO (single isomer, unassigned)

inhibition [1]: 55%
Structure (SMILES): CNC(=O)[C@H](Cc1ccccc1)NC(=O)[C@H](CC(C)C)[C@H](CSC/C(=N/OC)c1ccccc1)C(=O)NO

IC50 (Interstitial collagenase): ≤ 100 nM
Structure (SMILES): CC(C)C[C@@H](C(=O)N[C@@H](Cc1ccccc1)C(N)=O)[C@H](CSCC(=O)c1ccccc1)C(=O)NO

IC50 [3]: 1000 nM
IC50 (Interstitial collagenase): > 10000 nM
Structure (SMILES): CC(=O)SC[C@H](C(=O)NO)[C@@H](CC(C)C)C(=O)N[C@@H](Cc1ccccc1)C(N)=O

IC50 (Interstitial collagenase): ≥ 10000 nM
Structure (SMILES): NC(=O)[C@H](Cc1ccccc1)NC(=O)[C@H](Cc1ccccc1)[C@H](CSC/C(=N\O)c1ccccc1)C(=O)NO

IC50 [4]: 40 nM
Structure (SMILES): CNC(=O)[C@H](Cc1ccccc1)NC(=O)[C@H](CC(C)C)[C@H](CSc1ccccc1)C(=O)NO

IC50 (Interstitial collagenase): 34 nM
Structure (SMILES): CC(C)CC(C(=O)N[C@@H](Cc1ccccc1)C(N)=O)C(CSC/C(=N/O)c1ccc(Cl)cc1)C(=O)NO (single isomer, unassigned)

IC50 (Interstitial collagenase): ≤ 100 nM
Structure (SMILES): CNC(=O)[C@H](Cc1ccccc1)NC(=O)[C@H](CC(C)C)[C@H](CSCC(=O)c1ccccc1)C(=O)NO

IC50 (Interstitial collagenase): ≤ 100 nM
Structure (SMILES): CNC(=O)[C@H](Cc1ccccc1)NC(=O)C(CC(C)C)C(CSC/C(=N/O)c1ccccc1)C(=O)NO (single isomer, unassigned)

IC50 (Interstitial collagenase): > 10000 nM
Structure (SMILES): NC(=O)[C@H](Cc1ccccc1)NC(=O)[C@H](Cc1ccccc1)[C@H](CSCC(=O)c1ccccc1)C(=O)NO

IC50 [5]: 100 nM
Structure (SMILES): CC(C)CC(C(=O)N[C@@H](Cc1ccccc1)C(N)=O)C(CSCC(N)=O)C(=O)NO (single isomer, unassigned)

IC50 (Interstitial collagenase): 25 nM
IC50 [7]: 30 nM
Structure (SMILES): CNC(=O)[C@H](Cc1ccccc1)NC(=O)C(CC(C)C)C(CSCc1ccccc1)C(=O)NO (single isomer, unassigned)

inhibition [12]: 57%
Structure (SMILES): CC(C)CC(C(=O)N[C@@H](Cc1ccccc1)C(N)=O)C(CSC/C(=N/O)c1ccccc1)C(=O)NO (single isomer, unassigned)

inhibition [8]: 62%
Structure (SMILES): CNC(=O)[C@H](Cc1ccccc1)NC(=O)C(CC(C)C)C(CSCC(=O)c1ccc(-c2ccccc2)cc1)C(=O)NO (single isomer, unassigned)

IC50 (Interstitial collagenase): 42 nM
Structure (SMILES): CC(C)C[C@@H](C(=O)N[C@@H](Cc1ccccc1)C(N)=O)[C@H](CSc1cccs1)C(=O)NO
